Measured values: article PMC7880572 (ACS Chemical Neuroscience, 2021)
Where two headings read alike, the source gives them in different places.

What was measured:
in vitro = details: PAMPA, pH 7.4
[1] = literature reported PAMPA-BBB permeability; ref 1 (Di et al., 2003); cited from earlier work
cerebellar granule cells = assay: In vitro cytotoxicity (MTT); type: cell-based; details: CGCs, compound 10 μM, 48 h, mean ± SEM
Protocol: . […] For a more meaningful assessment of the value of the present compounds, the issue of their toxicity, in comparison to established drugs for AD, should deserve further investigation.
Cerebellar granule cells were prepared from 8-day-old Sprague Dawley rats as described previously.[66] Cells were studied from the 6th to the 12th day in vitro. The experimental procedures and care of the animals were performed in compliance with the Directive of the EU Parliament and Council of September 22, 2010 (2010/63/EU) and were approved by the Italian Ministry of Health (COD. 75F11.N.6DX) in accordance with D.M. 116/1992. All efforts were made in order to minimize animal suffering and the number of animals necessary to obtain reliable results.
[…]. Cells were maintained in 5% CO2 at 37 °C. The cell viability was assessed by the MTT assay 48 h after the treatment. […]. The survival rates of viable cells were calculated by comparing the optical absorbance of treated samples with that of the untreated controls. All experiments were repeated at least three times independently, and data are expressed as the mean ± SEM.

hMAO A = target: T1, hMAO A (Homo sapiens, UniProt P21397); assay: MAO A inhibition (fluorimetric kynuramine assay); type: biochemical; details: mean ± SEM, n = 3
T1 construct: purchased Sigma-Aldrich
T1 sequence (P21397 1-527): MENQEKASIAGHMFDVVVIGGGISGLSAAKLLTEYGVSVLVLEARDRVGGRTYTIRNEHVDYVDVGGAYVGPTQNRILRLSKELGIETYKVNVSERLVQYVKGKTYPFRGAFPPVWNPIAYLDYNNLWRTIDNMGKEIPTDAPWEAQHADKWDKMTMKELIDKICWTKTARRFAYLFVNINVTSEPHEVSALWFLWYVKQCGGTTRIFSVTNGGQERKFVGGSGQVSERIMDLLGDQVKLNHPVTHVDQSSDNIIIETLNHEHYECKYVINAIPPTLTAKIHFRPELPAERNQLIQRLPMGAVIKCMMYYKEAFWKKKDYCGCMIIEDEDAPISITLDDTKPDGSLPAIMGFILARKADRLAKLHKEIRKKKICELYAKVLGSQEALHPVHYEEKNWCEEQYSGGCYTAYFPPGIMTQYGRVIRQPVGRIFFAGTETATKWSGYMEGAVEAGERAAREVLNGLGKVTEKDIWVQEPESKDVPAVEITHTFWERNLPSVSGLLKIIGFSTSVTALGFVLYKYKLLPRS

PHF6 tau sequence = PHF6 tau sequence (Homo sapiens, UniProt P10636); assay: Inhibition of PHF6 aggregation (ThT fluorescence); details: for inhibition at 10 µM: read-out: PHF6 aggregation inhibition
Aβ42 = target: T2, Aβ42 (Homo sapiens, UniProt P05067); assay: Inhibition of Aβ42 fibrillation by ThT fluorescence assay; type: biochemical; details: Aβ42 30 μM, 37 °C, 48 h
T2 construct: purchased EzBiolab, Carmel, IN, USA
T2 sequence (P05067 672-713 limits assumed): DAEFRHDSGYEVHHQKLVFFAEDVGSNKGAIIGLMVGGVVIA
Protocol: Its high propensity to self-aggregate allows a fast execution of aggregation assays without the need of aggregation enhancers as for Aβ40.
Quercetin (QUR) was used as reference compound.
(§1) After incubation in 96-well black, nonbinding microplates (Greiner Bio-One GmbH, Frickenhausen, Germany), thioflavin T (25 μM) was added and fluorimetric reads (ex 440, em 485 nm) were performed in a multiplate reader Infinite M1000 Pro (Tecan, Cernusco sul Naviglio, Italy). Experiments were run in triplicate. Results were expressed by statistical analysis while IC50 values were obtained by nonlinear regression using Prism software (GraphPad Prism version 5.00 for Windows, GraphPad Software, San Diego, CA, USA).

[2] = based on the PAMPA-BBB classification range from Di et al.
MAO B [3] = target: T3, MAO B (Homo sapiens, UniProt P27338); assay: MAO B inhibition (fluorimetric kynuramine assay, inhibition kinetics); type: biochemical; details: for IC50: mean ± SEM, n = 3
T3 construct: purchased Sigma-Aldrich
T3 sequence (P27338 1-520): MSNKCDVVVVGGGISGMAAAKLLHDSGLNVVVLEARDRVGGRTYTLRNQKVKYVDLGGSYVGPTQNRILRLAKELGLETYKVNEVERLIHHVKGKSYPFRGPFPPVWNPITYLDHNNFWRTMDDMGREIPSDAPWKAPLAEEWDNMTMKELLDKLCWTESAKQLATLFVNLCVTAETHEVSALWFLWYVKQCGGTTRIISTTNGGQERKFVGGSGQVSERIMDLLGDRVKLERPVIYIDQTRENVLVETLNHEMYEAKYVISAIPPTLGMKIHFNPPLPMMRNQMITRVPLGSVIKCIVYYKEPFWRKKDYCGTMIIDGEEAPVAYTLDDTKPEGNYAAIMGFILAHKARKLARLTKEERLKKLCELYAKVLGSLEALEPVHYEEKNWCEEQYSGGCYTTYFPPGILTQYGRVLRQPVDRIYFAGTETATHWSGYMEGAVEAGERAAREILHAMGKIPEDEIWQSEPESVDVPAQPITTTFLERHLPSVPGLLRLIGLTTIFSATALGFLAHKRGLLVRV

Aβ40 [4] = target: T4, Aβ40 (Homo sapiens, UniProt P05067); assay: Inhibition of self-induced Aβ40 aggregation (ThT fluorescence, HFIP); type: biochemical; details: Aβ40 30 μM, 2 h at 25 °C, PBS 2% HFIP; mean ± SEM, n = 3; read-out: Aβ40 aggr IC50
T4 construct: samples of Aβ40 (30 μM) were coincubated for 2 h at 25 °C with test molecules; purchased EzBiolab, Carmel, IN, USA
T4 sequence (P05067 672-711 limits assumed): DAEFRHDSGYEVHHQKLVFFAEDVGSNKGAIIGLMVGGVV
Protocol: In vitro inhibition of Aβ40 aggregation was assessed following a previously reported thioflavin T (ThT) fluorescence-based method involving the use of hexafluoroisopropanol (HFIP) as aggregation enhancer. […].
In vitro inhibition assay of Aβ40 aggregation has been previously reported[41] and adapted to a 96-well plate platform.
as §1

[5] = target: T5, esBChE (BChE from equine serum) (Equus caballus, UniProt P81908); assay: biochemical; details: mean ± SEM, n = 3
T5 construct: BChE from horse serum (13 U/mL); purchased Sigma-Aldrich, Milan, Italy; host or cells: horse serum
T5 sequence (P81908 whole entry): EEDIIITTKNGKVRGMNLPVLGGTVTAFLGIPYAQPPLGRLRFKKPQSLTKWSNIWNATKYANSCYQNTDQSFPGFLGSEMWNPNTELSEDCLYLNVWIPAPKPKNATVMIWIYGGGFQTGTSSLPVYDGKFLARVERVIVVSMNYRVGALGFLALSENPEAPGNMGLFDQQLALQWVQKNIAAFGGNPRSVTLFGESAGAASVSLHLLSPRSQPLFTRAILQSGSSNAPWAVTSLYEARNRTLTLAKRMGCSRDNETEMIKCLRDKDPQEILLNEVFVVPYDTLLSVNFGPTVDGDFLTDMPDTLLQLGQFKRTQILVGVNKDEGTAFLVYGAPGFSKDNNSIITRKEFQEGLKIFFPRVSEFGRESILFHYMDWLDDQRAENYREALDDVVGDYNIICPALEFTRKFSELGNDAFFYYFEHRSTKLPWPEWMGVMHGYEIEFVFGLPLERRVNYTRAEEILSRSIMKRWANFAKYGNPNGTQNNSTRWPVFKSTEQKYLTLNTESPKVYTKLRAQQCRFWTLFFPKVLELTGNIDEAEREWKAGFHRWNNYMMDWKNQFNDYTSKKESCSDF

MAO B [6] = target: T3, MAO B; assay: MAO B kynuramine assay in spectrophotometric mode (4-hydroxyquinoline absorbance at 316 nm), incl. time course; type: biochemical
[7] = target: T6, eeAChE (AChE from electric eel) (Electrophorus electricus, UniProt O42275); assay: biochemical; details: mean ± SEM, n = 3
T6 construct: purchased Sigma-Aldrich, Milan, Italy
T6 sequence (O42275 24-633): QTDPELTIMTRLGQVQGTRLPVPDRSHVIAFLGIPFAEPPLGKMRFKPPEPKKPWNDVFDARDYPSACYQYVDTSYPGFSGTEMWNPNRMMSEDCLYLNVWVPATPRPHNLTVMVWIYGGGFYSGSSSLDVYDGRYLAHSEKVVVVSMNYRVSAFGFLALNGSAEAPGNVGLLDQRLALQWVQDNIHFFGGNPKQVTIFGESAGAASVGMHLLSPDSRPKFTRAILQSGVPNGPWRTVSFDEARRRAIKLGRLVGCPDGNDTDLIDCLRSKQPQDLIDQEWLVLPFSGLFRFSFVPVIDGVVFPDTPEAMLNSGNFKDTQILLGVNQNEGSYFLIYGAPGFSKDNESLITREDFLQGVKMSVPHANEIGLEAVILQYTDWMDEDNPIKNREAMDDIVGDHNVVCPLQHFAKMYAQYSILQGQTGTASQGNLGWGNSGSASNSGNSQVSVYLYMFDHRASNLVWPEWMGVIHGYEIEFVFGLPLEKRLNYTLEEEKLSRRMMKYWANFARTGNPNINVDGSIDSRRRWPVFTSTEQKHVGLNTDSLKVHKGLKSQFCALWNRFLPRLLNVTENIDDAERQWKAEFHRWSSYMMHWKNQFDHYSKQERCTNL

R3 tau sequence = target: T7, R3 tau sequence (Homo sapiens, UniProt P10636); assay: Inhibition of R3 aggregation (ThT fluorescence); type: biochemical; details: R3 25 μM, 4 h at 37 °C; mean of two independent experiments
T7 construct: The 30-amino acid peptide (V306-Q336) R3; purchased Bachem, Bubendorf, Switzerland
T7 sequence (P10636 623-653 limits assumed): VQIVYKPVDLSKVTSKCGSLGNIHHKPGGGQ
Excerpt: . The 30-amino acid peptide (V306-Q336) R3 is a high-repeated domain containing the PHF6 sequence and present in all tau isoforms.[62] Its high propensity to self-aggregate in buffered solutions, even in the absence of aggregation inducers such as heparin,[63] makes R3 a reliable surrogate of full-length tau protein for in vitro experiments. In our assay protocol, the commercial R3 peptide was pretreated with 1,1,1-trifluoroethanol (TFE) overnight in order to dissolve any preformed aggregate and reestablish the random coil arrangement, then diluted in PBS at the test concentration of 25 μM.
A stock solution of 1.5 mM R3 (trifluoroacetate salt; Bachem, Bubendorf, Switzerland) was prepared in TFE and left overnight at room temperature. […] . […] IC50 values were calculated by means of Prism as the mean of two independent experiments.

AChE = test system: AChE; set-up: method as in PMID 25924599; details: first series; cited from earlier work
Aβ40 [8] = target: T4, Aβ40; set-up: method as in PMID 25924599; details: first series; cited from earlier work
BChE = test system: BChE; set-up: method as in PMID 25924599; details: first series; cited from earlier work

In the case of `Cc1nnc2n1-c1ccc(Cl)cc1C(c1ccccc1)=NC2` [Alprazolam], the Papp (in vitro) is listed as 4.8 ×10⁻⁶ cm/s and the “Pe,rep” value [1] is listed as 5.4 10-6 cm/s.
In the case of `O=C1C(Cl)=C(NCc2ccccc2)C(=O)c2ccccc21` [Compound 2], the “cell viability vs control (%)” value (cerebellar granule cells) is reported as 89 ± 14%, the IC50 (hMAO A) is reported as 3.6 ± 0.3 µM and the inhibition at 10 µM (PHF6 tau sequence) is reported as 91%. For the same compound, the “inhibition of Aβ42 aggregation” value (Aβ42; lower concentration used (5 μM)) was “strong inhibitor”, the Papp at 16 h (in vitro) was 28.4 ± 2.1 ×10⁻⁶ cm/s and the CNS prediction [2] was “CNS+”. The “increase of Ki for higher coincubation times” value (MAO B [3]; coincubation up to 2 h vs 5 min) was “about 20 fold”, the “MAO B inhibition mechanism” value (MAO B [3]; coincubation with enzyme limited to 5 min) was “competitive inhibition” and the “MAO B inhibition mechanism” value (MAO B [3]; higher coincubation times (up to 2 h)) was “noncompetitive”. The IC50 (MAO B [3]) was 0.0077 ± 0.0013 µM, the “selectivity MAO B versus MAO A” value (MAO B [3]; ratio of inhibitory activities) was 473 fold and the IC50 (Aβ40 [4]) was 3.2 ± 0.8 µM. The inhibition at 10 µM [5] was 26%, the “MAO B enzymatic activity in time course” value (MAO B [6]; 10 nM inhibitor, absorption of 4-hydroxyquinoline at 316 nm) was “still present even after 3 h” and the IC50 (MAO B [6]; absorbance of 4-hydroxyquinoline at 316 nm) was 0.018 µM. For the same compound, the IC50 [7] was 9.2 ± 0.6 µM.
With `O=C1C(Cl)=C(NCCc2ccccc2)C(=O)c2ccccc21` [Compound 3] the inhibition at 10 µM (hMAO A; at 10 μM) was 41%, the IC50 (PHF6 tau sequence) was 4.96 ± 0.75 µM and the inhibition at 10 µM (PHF6 tau sequence) was greater than 95%. The IC50 (R3 tau sequence) was 1.19 ± 0.44 µM, the IC50 (MAO B [3]) was 0.031 ± 0.001 µM and the IC50 (Aβ40 [4]) was 4.4 ± 0.3 µM. The inhibition at 10 µM [5] was 24% and the IC50 [7] was 7.9 ± 0.8 µM.
With `O=C1c2ccccc2C(=O)c2c(NCCc3ccccc3)cccc21` [Compound 11, 1-(Phenethylamino)-9,10-anthraquinone] the “cell viability vs control (%)” value (cerebellar granule cells) was 85 ± 15%, the IC50 (hMAO A) was 3.1 ± 0.3 µM and the IC50 (PHF6 tau sequence) was 1.78 ± 0.23 µM. For the same compound, the inhibition at 10 µM (PHF6 tau sequence) was greater than 95%, the “inhibition of Aβ42 aggregation (activity profile)” value (Aβ42; 100 and 5 μM) was “best activity profile” and the Papp at 16 h (in vitro) was 24.7 ± 2.2 ×10⁻⁶ cm/s. For the same compound, the IC50 (R3 tau sequence) was 0.36 ± 0.02 µM, the CNS prediction [2] was “CNS+” and the IC50 (MAO B [3]) was 0.57 ± 0.02 µM. For the same compound, the IC50 (Aβ40 [4]) was 2.1 ± 0.2 µM, the IC50 [5] was 1.7 ± 0.3 µM and the IC50 [7] was 7.3 ± 0.7 µM.
For `O=C1c2ccccc2C(=O)c2c(NC[C@@H]3CCCN4CCCC[C@H]34)cccc21` [IX], the IC50 (AChE) is listed as 0.84 µM and the IC50 (Aβ40 [8]) is listed as 6.4 µM.
In the case of `O=C1Nc2ccc(Cl)cc2C(c2ccccc2)=NC1O` (stereo not drawn) [Oxazepam], the Papp (in vitro) is listed as 9.1 ×10⁻⁶ cm/s and the “Pe,rep” value [1] is listed as 10 10-6 cm/s.
In the case of `O=C1C(Cl)=C(NCCCSC[C@@H]2CCCN3CCCC[C@H]23)C(=O)c2ccccc21` [VII], the IC50 (Aβ40 [8]) is given as 61 µM and the IC50 (BChE) is given as 4.1 µM.
For `CCN(CC)CCCNc1cccc2c1C(=O)c1ccccc1C2=O` [XIII], the IC50 (Aβ40 [8]) is listed as 61 µM.
